For orientation: Ki means a dissociation constant, usually derived from enzyme kinetics or from competition with a known ligand.

The source of these data is patent US7105483B2, “Phosphinic pseudopeptide derivatives for the selective inhibition of the C-terminal active site of angiotensin I converting enzyme (ACE)” (Commissariat a l'Energie Atomique, priority 2002, dated 2006).

In series [1] the target is N-terminal site of human recombinant ACE (Homo sapiens, UniProt P12821). The experiment in a line: Inhibition constants with respect to the N-terminal site of ACE (quenched-fluorescence substrate). It counts as biochemical. Conditions: first HPLC fraction; substrate Mca-Ala-Ser-Asp-Lys-DpaOH; 25° C., pH 6.8, 50 mM HEPES, 10 mM CaCl2, 200 mM NaCl. The text has this:
(§1) Human recombinant ACE is used for this determination. Curves of inhibition of ACE with pseudopeptides A to G are obtained using the quenched-fluorescence substrate Mca-Ala: Mca-Ala-Ser-Asp-Lys-DpaOH (Mca: […]; DpaOH: N-3-(2,4-dinitrophenyl)-L-2,3-diaminopropionyl).
(§2) The first fraction collected during the purification of each of the pseudopeptides A to G by HPLC (peak 1 of FIG. 2 for pseudopeptide G) is used for these tests.
(§3) From the inhibition profiles obtained with this substrate, for each pseudopeptide A to G, it is possible to determine the constants Ki N and Ki C by following the procedure described by Dive et al..
(§4) The inhibition experiments were performed at 25° C., pH 6.8, 50 mM HEPES, 10 mM, CaCl2, 200 mM NaCl.

Series [2] deals with C-terminal site of human recombinant ACE (Homo sapiens, UniProt P12821). The experiment in a line: Inhibition constants with respect to the C-terminal site of ACE (quenched-fluorescence substrate). It counts as biochemical. The conditions noted are these: first HPLC fraction; substrate Mca-Ala-Ser-Asp-Lys-DpaOH; 25° C., pH 6.8, 50 mM HEPES, 10 mM CaCl2, 200 mM NaCl.
Sequence of C-terminal site of human recombinant ACE (P12821 30-1306): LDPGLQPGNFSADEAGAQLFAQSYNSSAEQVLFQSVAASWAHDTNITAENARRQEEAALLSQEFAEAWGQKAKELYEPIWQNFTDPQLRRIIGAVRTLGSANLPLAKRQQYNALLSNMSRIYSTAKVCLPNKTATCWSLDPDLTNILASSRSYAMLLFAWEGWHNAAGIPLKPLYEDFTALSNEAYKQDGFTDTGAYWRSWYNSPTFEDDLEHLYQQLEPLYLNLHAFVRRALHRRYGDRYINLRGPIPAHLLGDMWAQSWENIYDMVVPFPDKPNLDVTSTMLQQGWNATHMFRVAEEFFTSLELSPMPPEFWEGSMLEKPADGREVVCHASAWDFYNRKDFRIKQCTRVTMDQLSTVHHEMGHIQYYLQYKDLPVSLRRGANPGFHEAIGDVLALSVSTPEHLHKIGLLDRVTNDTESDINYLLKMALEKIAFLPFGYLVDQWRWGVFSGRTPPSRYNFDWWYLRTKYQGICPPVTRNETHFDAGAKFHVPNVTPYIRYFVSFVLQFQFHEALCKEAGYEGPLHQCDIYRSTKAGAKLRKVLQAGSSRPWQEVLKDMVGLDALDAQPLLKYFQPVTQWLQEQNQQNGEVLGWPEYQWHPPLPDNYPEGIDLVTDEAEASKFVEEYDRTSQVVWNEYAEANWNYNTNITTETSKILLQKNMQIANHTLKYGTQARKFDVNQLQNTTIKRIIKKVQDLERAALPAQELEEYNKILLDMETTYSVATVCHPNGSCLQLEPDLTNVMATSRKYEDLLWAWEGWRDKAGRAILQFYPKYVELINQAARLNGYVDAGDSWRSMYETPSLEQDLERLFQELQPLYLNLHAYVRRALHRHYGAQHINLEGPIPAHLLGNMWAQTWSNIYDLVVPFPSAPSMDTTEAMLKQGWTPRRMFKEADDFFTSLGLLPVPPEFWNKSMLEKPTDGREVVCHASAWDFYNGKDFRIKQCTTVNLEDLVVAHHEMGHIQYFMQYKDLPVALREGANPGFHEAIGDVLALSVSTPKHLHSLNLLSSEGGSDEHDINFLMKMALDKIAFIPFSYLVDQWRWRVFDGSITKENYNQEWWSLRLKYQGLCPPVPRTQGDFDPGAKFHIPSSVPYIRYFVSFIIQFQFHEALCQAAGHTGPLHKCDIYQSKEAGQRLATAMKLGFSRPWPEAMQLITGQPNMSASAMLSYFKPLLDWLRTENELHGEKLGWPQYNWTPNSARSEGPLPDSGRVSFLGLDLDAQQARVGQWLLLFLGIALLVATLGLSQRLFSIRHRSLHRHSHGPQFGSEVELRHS
From the text: as §1, §2, §3, §4

A further series addresses ACE (Homo sapiens, UniProt P12821). The experiment in a line: Inhibitory power of HPLC-isolated diastereoisomers/fractions with respect to ACE. It counts as biochemical. Conditions: HPLC-isolated diastereoisomer / first fraction (peak 1). The text has this:
In this figure, 4 peaks corresponding to the 4 diastereoisomers present in pseudopeptide G are observed (these 4 peaks have an identical mass spectrum, mass observed MH^+=618.23, expected mass=617.23).

For a further series, the system named is cleavage of bradykinin. Kind of series: In vivo cleavage (protection) of bradykinin in mice. The conditions noted are these: 10 mg/kg of body weight; protection with perindopril arbitrarily set at 100%; C57BL6/J mice. Here is the method: (§5) This study is performed on batches of male C57BL6/J mice (Iffa Credo) weighing 20 to 23 g each, each batch comprising 6 mice.
(§6) To do this, the mice are anaesthetized by means of an intraperitoneal administration of sodium pentobarbital (Sanofi) at a dose of 80 mg/kg of body weight. The right carotid artery is isolated and a catheter (PE10, 0.28×0.61, A-M Systems, Inc.) is inserted into this artery to allow the withdrawal of blood samples, while another catheter (FEP, 0.12×0.67, Carnegie Medecin) is inserted into the ipsilateral jugular vein to allow the administration of the substances. Throughout the experiment, the body temperature of the mice is maintained at 38° C. […]
(§7) Samples of arterial blood, of about 50 μl, are withdrawn 30, 60 and 90 seconds after injection of the angiotensin I mixture or of the bradykinin mixture to the mice that received these mixtures, and 1, 5, 10 and 15 minutes after the start of injection of the Ac-SDKP mixture to the mice that received the latter mixture. […] The exact amounts of blood withdrawn are determined by reweighing the tubes. […]

For series [3], the system named is cleavage of the peptide Ac-SDKP. Kind of series: In vivo cleavage of the peptide Ac-SDKP in mice. The conditions noted are these: 10 mg/kg of body weight, versus saline control. The procedure:
as §5, §6, §7

Series [4] has as its system conversion of angiotensin I into angiotensin II. The experiment in a line: In vivo cleavage of angiotensin I to angiotensin II in mice. Conditions: perfusion over 30 minutes, C57BL6/J mice. The procedure: as §5, §6, §7
For series [5] the following is noted: mice; cited from earlier work.
For series [6] the following is noted: rats; cited from earlier work.
Series [7] concerns degradation of the peptide N-acetyl Ser-Asp-Lys-Pro (Ac-SDKP). Conditions: mice, reference [9]; cited from earlier work.

SMILES strings stand for the structures. Like-named read-outs stand apart in the source and are kept apart here.

Sequence of ACE (P12821 30-1306): as above
Sequence of N-terminal site of human recombinant ACE (P12821 30-1306): as above

Take `CC(NC(=O)OCc1ccccc1)P(=O)(O)C1CCCC1C(=O)NC(CCCc1c[nH]c2ccccc12)C(=O)O` (centres unmarked) [Pseudopeptide E]: the Ki in [1] came out at 8000 nM; in [2], 60 nM. For the same compound, the “inhibitory power with respect to ACE” value on ACE was “capable of inhibiting ACE”.

Consider `CCC[C@H](N[C@@H](C)C(=O)N1[C@H](C(=O)O)C[C@@H]2CCCC[C@@H]21)C(=O)OCC` [perindopril, reference compound], for which the “degree of protection of bradykinin” value in the series on cleavage of bradykinin was determined as 100%.

Turning to `O=C(NC(CCc1ccccc1)P(=O)(O)C1CCCC1C(=O)NC(CCCc1c[nH]c2ccccc12)C(=O)O)OCc1ccccc1` (centres unmarked) [Pseudopeptide F], the Ki in series [1] is 8000 nM; in series [2], 60 nM. Besides, on ACE, the “inhibitory power with respect to ACE” value is listed as “capable of inhibiting ACE”.

With `CC(NC(=O)CCP(=O)(O)C(Cc1ccccc1)NC(=O)OCc1ccccc1)C(=O)O` (centres unmarked) [Pseudopeptide A, reference compound], the Ki in series [1] and in [2] was 0.8 nM throughout.

As to `N=C(N)NCCCC(NC(=O)C1CCCC1P(=O)(O)C(Cc1ccccc1)NC(=O)OCc1ccccc1)C(=O)O` (centres unmarked) [Pseudopeptide D], the Ki in [1] was found to be 200 nM; in series [2], 9 nM. Besides, on ACE, the “inhibitory power with respect to ACE” value is “capable of inhibiting ACE”.

As to `O=C(NC(Cc1ccccc1)P(=O)(O)C1CCCC1C(=O)NC(Cc1c[nH]c2ccccc12)C(=O)O)OCc1ccccc1` (centres unmarked) [Pseudopeptide G], the Ki in series [1] came to 10000 nM; in series [2], 3 nM. Also, the “effect on the cleavage of the peptide Ac-SDKP” value in series [3] (C57BL6/J mice) is listed as “no significant effect”. Also, in the series with cleavage of bradykinin, the “degree of protection of bradykinin” value stood at 9.2%. For the same compound, the “reduction of the angiotensin II/angiotensin I ratio measured in the control mice” value in [4] (0.9 mg/kg of body weight) worked out at 50%; in series [4] (30 mg/kg of body weight) it was 90%. Also, at ACE, the “inhibitory power with respect to ACE” value is given as “shows inhibitory power”.

`CC(=O)N[C@@H](CC(=O)O)C(=O)N[C@@H](Cc1ccccc1)P(=O)(O)C[C@@H](C)C(=O)N[C@@H](C)C(N)=O` [RXP407]: the metabolism in vivo entry in series [5] and in series [6] was “not metabolized” each time. Also, the “increase of the plasmatic content of Ac-SDKP relative to control mice” value in [3] (mice) is recorded as 16 fold. Further, the “inhibition of the degradation of Ac-SDKP in vivo” value in series [7] is reported as “capable of inhibiting the degradation”.

For the compound `CC(NC(=O)C1CCCC1P(=O)(O)C(Cc1ccccc1)NC(=O)OCc1ccccc1)C(=O)O` (centres unmarked) [Pseudopeptide B], the Ki in [1] came to 450 nM; in series [2], 20 nM. For the same compound, the “inhibitory power with respect to ACE” value against ACE is reported as “capable of inhibiting ACE”.

Regarding `O=C(NC(Cc1ccccc1)P(=O)(O)C1CCCC1C(=O)N1CCCC1C(=O)O)OCc1ccccc1` (centres unmarked) [Pseudopeptide C], the Ki in series [1] stood at 60 nM; in series [2], 4 nM. At ACE, the “inhibitory power with respect to ACE” value is “capable of inhibiting ACE”.
